# Results published in patent publication US12180146B2, “Antihypertensive polyol compound and derivative thereof” (TAO PHARMACEUTICAL (SUZHOU) CO., LTD, priority 2020, dated 2024).
# Legend:
# [1] = test system: monocrotaline-induced pulmonary hypertension model rats (MCT-PAH); test: Monocrotaline-induced pulmonary hypertension model rats, aerosol inhalation treatment; type: in vivo, SD rats; details: inh, 28 days
# Method: A pulmonary hypertension animal model of SD rats was established by subcutaneous injection of monocrotaline (MCT). The compound 1 was administered by aerosol inhalation for treatment. The pulmonary artery hemodynamics and right heart hypertrophy index RVHI of rats were tested to determine whether compound 1 administered by aerosol inhalation has effects of improving monocrotaline-induced pulmonary hypertension.
# (§1) SD rats (purchased from Shanghai Xipuer-Bikai Experimental Animal Co., Ltd.), male, weighing 180-200 g, were bred in an artificially controlled animal room with each 12 hours of light and darkness at a temperature of 20-25° C. and relative humidity of 50-60%, and allowed ad libitum to food and water. The rats were randomly divided into groups according to the experimental requirements, and kept separately in cages, with 3 to 4 rats per cage. All relevant operations of animal experiments are in compliance with the provisions of “Guidelines for the Management and Use of Laboratory Animals” of China.
# In the second experiment, the rats were divided into 5 groups, namely the control group, model group, positive control Tyvaso (1.62 μg/kg) group, compound 1 (10 mg/kg) group and compound 1 (30 mg/kg) group. On the first day of the experiment, normal saline was injected subcutaneously into the back of the neck of the rats in the blank control group, and monocrotaline (Chengdu Purifa Biotechnology Co., Ltd.) solution was injected in the other groups at a dosage of 60 mg/kg. Compound 1 and Tyvaso were administered by aerosol inhalation, that is, the compound was firstly dissolved in physiological saline, and then the solution was prepared into an aerosol with a nebulizer to be inhaled into the mouth and nose of rats. The rats in the control group and the model group only inhaled an aerosol made of physiological saline. The rats were continuously administered for 28 days, and the concentration in the parentheses of the group name represents the administered concentration of the compound. Specific groupings can be found in Table 9. After the administration, the pulmonary vascular hemodynamics and RVHI were determined in the same way as the experiment method in Example 1.
# [2] = test system: hypoxic pulmonary hypertension model rats; test: Hypoxic pulmonary hypertension model rats, oral (gavage) treatment for 28 days; type: in vivo, SD rats; details: hypoxic PAH rats, po
# Method: An animal model of pulmonary hypertension in SD rats was established in a hypoxic and low-pressure environment, and compound 1 was administered by gavage at the same time for treatment. The rat pulmonary artery hemodynamics and right heart hypertrophy index RVHI were measured to determine whether compound 1 has effects of improving hypoxic pulmonary hypertension.
# as §1
# The hypoxic PAH model was established by placing SD male rats in a fully-automatically regulated low-pressure hypoxic chamber (atmospheric pressure of about 50 kPa, oxygen concentration of 10%) for 8 hours a day for 28 days. The rats in the blank control group were kept in a normoxic environment.
# The experimental rats of hypoxic PAH model were divided into 8 groups, namely blank control group, model group, Sidenafil (25 mg/kg) group, compound 1 (10 mg/kg) group, compound 1 (25 mg/kg) group, compound 1 (50 mg/kg) group, compound 1 (100 mg/kg) group, and compound 1 (200 mg/kg) group. The concentration in the parentheses of the group name represents the administration concentration of the compound or drug. In hypoxia-induced PAH experiments, Sidenafil is often used as a positive drug, which can reduce the pulmonary artery pressure in rats and reduce the right ventricular hypertrophy and vascular remodeling. In this experiment, 25 mg/kg of Sidenafil was used as the positive drug. Both the positive drugs Sidenafil and Compound 1 were dissolved in physiological saline and formulated into solutions of different concentrations according to different administration concentrations. The rats were continuously administered for 28 days with an administration volume of 5 ml/kg. Rats in the control and model groups were given the corresponding volume of physiological saline solution via gavage. The specific grouping can be found in Table 5.
# After the administration was completed, the POWERLAB biological information acquisition and treatment system was started, and the right cardiac catheter filled with 0.2% heparin sodium (Beijing Solo Technology Co. Ltd.) in normal saline was connected to the pressure transducer and then zero-calibrationed for use. After 20% urethane (Shanghai Yuanye Biotechnology Co., Ltd.) solution was injected into the abdominal cavity of the rats for anesthesia, the right neck hair was shaved and the right jugular vein was isolated and exposed. […] After the typical right ventricular waveform appeared and stabilized for a while, the waveform was recorded, and then the pressure value was read by Powerlab biological information acquisition and processing system (ADInstruments).
# After the pressure was measured, the catheter was taken out, and the rat was dissected immediately to take out the heart and lung tissues. The right ventricle (RV) and the left ventricle and interventricular septum (LV+S) were separated and weighed, and the right heart hypertrophy index RVHI=RV/(LV+S) was calculated. The lung lobe tissue from the right lower part of the lung was separated, soaked in 4% paraformaldehyde (Sigma) for about 1 week to prepare a paraffin section with a thickness of 3 μm, and then conducted to hematoxylin-eosin staining (Wuhan Guge Biotechnology Co., Ltd.). […]
smiles,measurement,setting,value
"CCc1cccc(C(O)CO)c1 (stereo not drawn) [Compound 1, 1-(3-ethylphenyl)-1,2-ethylene glycol]",2 × MT/ED,[1]; 10 mg/kg,0.335 ± 0.034
same,RVHI,[1]; 10 mg/kg,0.235 ± 0.026
same,RVSP,[1]; 10 mg/kg,35.92 ± 3.74 mmHg
same,mPAP,[1]; 10 mg/kg,11.46 ± 2.48 mmHg
same,RVHI,"[1]; 10 mg/kg, listed as compound 1, 10 mg/kg",0.235±0.026
same,2 × MT/ED,[1]; 30 mg/kg,0.319 ± 0.035
same,RVHI,[1]; 30 mg/kg,0.204 ± 0.035
same,RVSP,[1]; 30 mg/kg,31.18 ± 4.62 mmHg
same,mPAP,[1]; 30 mg/kg,8.06 ± 2.59 mmHg
same,RVHI,"[1]; 30 mg/kg, listed as compound 1, 30 mg/kg",0.204±0.035
same,RVSP,[2]; 10 mg/kg,70.28 ± 4.64 mmHg
same,mPAP,[2]; 10 mg/kg,25.26 ± 3.46 mmHg
same,RVHI,"[2]; 10 mg/kg, RV/(LV+S)",0.467 ± 0.030
same,2 × MT/ED,"[2]; 10 mg/kg, medium thickness ratio of small pulmonary arteries",0.361 ± 0.020
same,2 × MT/ED,[2]; 25 mg/kg,0.323 ± 0.022
same,RVHI,[2]; 25 mg/kg,0.472 ± 0.026
same,RVSP,[2]; 25 mg/kg,71.34 ± 2.12 mmHg
same,mPAP,[2]; 25 mg/kg,22.36 ± 1.78 mmHg
same,2 × MT/ED,[2]; 50 mg/kg,0.304 ± 0.021
same,RVHI,[2]; 50 mg/kg,0.456 ± 0.019
same,RVSP,[2]; 50 mg/kg,67.46 ± 4.28 mmHg
same,mPAP,[2]; 50 mg/kg,21.66 ± 3.28 mmHg
same,2 × MT/ED,[2]; 100 mg/kg,0.266 ± 0.014
same,RVHI,[2]; 100 mg/kg,0.301 ± 0.017
same,RVSP,[2]; 100 mg/kg,59.12 ± 2.12 mmHg
same,mPAP,[2]; 100 mg/kg,15.89 ± 1.12 mmHg
same,2 × MT/ED,[2]; 200 mg/kg,0.241 ± 0.011
same,RVHI,[2]; 200 mg/kg,0.254 ± 0.022
same,RVSP,[2]; 200 mg/kg,54.38 ± 2.98 mmHg
same,mPAP,[2]; 200 mg/kg,15.21 ± 1.92 mmHg
